{"source": "paper PMC4301629", "about": "(PLoS ONE, 2015)", "key": {"α1A-AR [1]": {"molecular_target": "T1, α1A-AR (Homo sapiens, UniProt P35348)", "T1 sequence (P35348 1-466)": "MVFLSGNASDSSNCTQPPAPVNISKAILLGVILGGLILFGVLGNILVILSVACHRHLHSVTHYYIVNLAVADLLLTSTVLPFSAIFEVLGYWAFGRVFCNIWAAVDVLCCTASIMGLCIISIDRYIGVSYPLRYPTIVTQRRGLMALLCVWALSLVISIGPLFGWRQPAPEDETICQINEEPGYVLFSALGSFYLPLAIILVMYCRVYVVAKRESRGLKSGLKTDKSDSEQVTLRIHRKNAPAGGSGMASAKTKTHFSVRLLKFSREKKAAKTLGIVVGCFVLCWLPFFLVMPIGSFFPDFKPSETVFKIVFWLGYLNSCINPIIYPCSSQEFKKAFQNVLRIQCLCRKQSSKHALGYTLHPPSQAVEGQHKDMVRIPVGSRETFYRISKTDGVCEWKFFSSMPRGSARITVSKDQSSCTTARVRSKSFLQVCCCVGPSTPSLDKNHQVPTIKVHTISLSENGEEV", "assay": "LC-MS detection of IP1, IP2 and IP3 in α1A-AR_CHO stable cells", "type": "cell-based", "parameters": "expressed in transfected cells", "settings": "α1A-AR CHO, Iso up to 1 mM", "description": "(§1) After that, the medium was replaced with agonist solution in assay buffer (20 mM HEPES, 10 mM glucose, 1.8 mM CaCl2, 0.5 mM MgSO4, in HBSS 1X buffer, 50 mM LiCl) and cells were incubated at 37°C for 30 min. Stimulation was stopped by exchange of assay buffer with lysis buffer (100 μL 0.1N HCl/MeOH), and lysis proceeded for 30 min at 4°C. Cellular levels of inositol phosphates were determined using a Thermo LC-MS detection system following a published protocol. Chromatography was performed employing a BioBasic column AX (50 × 2.1 mm, Thermo). The mobile phase consisted of solvent A: 10 mM ammonium acetate, pH 6 in 30/70 acetonitrile/water, and solvent B: 1 mM ammonium acetate, pH 11 in 30/70 acetonitrile/water. A gradient solvent system was used starting with 0% solvent B, and analytes were eluted by increasing solvent B to 100% over 3 min. Each data point represents the average of triplicate determinations and each experiment was performed at least three times independently.\nIP1, IP2, and IP3 levels were determined via LC-MS. Plots are representative of three independent experiments with each data point being the average of triplicates."}, "β2-AR [2]": {"molecular_target": "T2, β2-AR (Homo sapiens, UniProt P07550)", "T2 construct": "HEK-293/EBNA cells are known to express β2-AR endogenously; endogenous in cells; host or cells: HEK-293/EBNA (untransduced or negative-control transduced)", "settings": "HEK293/EBNA; [125I-CYP] used as radioligand (footnote 1a); cited from earlier work"}, "α1A-AR [3]": {"molecular_target": "T1, α1A-AR", "assay": "LC-MS detection of IP1, IP2 and IP3 in α1A-AR transduced HEK-293/EBNA cells", "type": "cell-based", "parameters": "expressed in transfected cells; host or cells: HEK-293/EBNA (baculovirus transduction, NaBu induction)", "settings": "Iso up to 10 mM", "description": "as §1, with “Virally transduced HEK-293/EBNA cells were resuspended in growth medium and seeded in poly-D-lysine coated 96-well black plates at a density of 100,000 cells/0.1 mL per well, Cells were allowed to attach for 2 hours at 37°C in a humidified atmosphere of 95% air and 5% CO2. After” for “After”"}, "α1A-AR [4]": {"molecular_target": "T1, α1A-AR", "assay": "Translocation of GFP-tagged β-arrestin-1/2 in HEK293 cells expressing FLAG-α1A-AR (confocal microscopy)", "type": "cell-based", "parameters": "expressed in transfected cells; host or cells: HEK-293/EBNA (baculovirus transduction, NaBu induction)", "settings": "HEK293, 1 μM A-61603 or 1 mM Iso", "description": "HEK293 cells were transiently co-transfected with FLAG-tagged α1A – AR and one of the following GFP-tagged proteins: Rab5 (Rab5 Q79L) variant, Rab11 (Rab11 S25N) variant, β-arrestin-1 or β-arrestin-2. Rab5 and Rab11 were kindly provided by Dr. Marino Zerial (Max Planck Institute of Molecular Cell Biology and Genetics, Dresden, Germany). […] After treatment, cells were fixed with freshly prepared 3.7% paraformaldehyde in PBS for 15 min at room temperature. Subsequently, cells were permeabilized with 0.1% Triton X-100 (Sigma-Aldrich) in PBS for 5 min, followed by nonspecific binding site blocking with 3% normal serum (Santa Cruz Biotechnology) in PBS for 1 h. Incubation with Alexa Fluor-568 conjugated anti-FLAG antibodies in blocking solution was done as directed by the manufacturer. Confocal microscopy was performed using a Zeiss LSM 510 META laser scanning microscope (Carl Zeiss, Inc., Thornwood, NY) equipped with a 60X objective, using the following laser wavelengths: excitation at 488 nm and emission at 505–530 nm; excitation at 543 nm and emission at 560–615 nm.\nHEK293 cells were co-transfected with FLAG-tagged α1A – AR and GFP- tagged β-arrestin-1 (left panels) or β-arrestin-2 (right panels). […] Cells were then fixed, permeabilized, stained with Alexa Fluor-568 conjugated anti-FLAG antibodies, and analyzed employing confocal microscopy."}, "HEK293/EBNA cells": {"tested_on": "HEK293/EBNA cells", "assay": "IP accumulation (IP-One HTRF) in untransduced HEK-293/EBNA cells", "type": "cell-based"}, "β2-AR [5]": {"molecular_target": "T2, β2-AR", "settings": "HEK293/EBNA; read-out: EC50 Ca2+; cited from earlier work"}, "β2-AR [6]": {"molecular_target": "T2, β2-AR", "assay": "MAPK activation (AlphaScreen SureFire p-ERK) in untransduced HEK-293/EBNA cells", "type": "cell-based", "settings": "HEK293/EBNA"}, "β2-AR [7]": {"molecular_target": "T2, β2-AR", "assay": "cAMP accumulation in untransduced HEK-293/EBNA cells", "type": "cell-based", "settings": "HEK293/EBNA"}, "α1A-AR [8]": {"molecular_target": "T1, α1A-AR", "assay": "MAPK activation (AlphaScreen SureFire p-ERK) in α1A-AR transduced HEK-293/EBNA cells", "type": "cell-based", "parameters": "expressed in transfected cells; host or cells: HEK-293/EBNA (baculovirus transduction, NaBu induction)", "description": "(§2) Prior to experiments, cells were transduced with baculovirus strains designed for transient expression of α1A-AR or aldehyde oxidase (negative control). This was performed by incubating cells with virus (MOI 100–150) for 3 to 4 h, followed by exchange into fresh serum free growth medium supplemented with 4 mM sodium butyrate (NaBu). Cells were grown for another 14 to 18 h and then examined for agonist-evoked responses in transient Ca^2+ release, IP accumulation or pERK activation assays. The surface receptor expression density was determined by flow cytometry via immunofluorescence labeling of an N-terminal HA epitope tag on the receptor and radioligand binding in partially purified membranes.\nGraphs shown reflect either pooled or representative data (see figure legends). For concentration-response analysis, results from Ca^2+ mobilization experiments were plotted as ΔF/F0 vs. agonist concentration and fit to a sigmoidal concentration-response equation using the GraphPad Prism software package. […] For radioligand binding experiments, B max values were calculated from maximum binding using the equation B max = (SB × ([…] + [L])/[L]), where SB is the specific binding expressed as fmol per mg of membrane protein, and [L] is the ligand concentration."}, "α1A-AR [9]": {"tested_on": "α1A-AR", "assay": "Ca2+ transient response (FLIPR, fluo3) in α1A-AR transduced HEK-293/EBNA cells", "type": "cell-based", "settings": "α1A-AR HEK-293/EBNA", "description": "as §2\nCells were resuspended in Hank’s balanced salt solution (Invitrogen) supplemented with 2 mM CaCl2, 10 mM HEPES pH 7.4, 2.5 mM probenecid, plus 1g/L each of glucose and bovine serum albumin (BSA), and seeded in poly-D-lysine coated 96-well black plates with transparent bottom (Costar) at a density of 50,000 cells/0.1 mL per well. Cells were then incubated for 1 h at 37°C with an additional 0.1 mL of buffer containing 4 μM fluo3-AM that was diluted from a stock solution containing 1 mM fluo3-AM dye in DMSO with 10% pluronic acid. After dye loading incubation, plates were washed twice with 100 μL of buffer and refilled with 100 μL of assay buffer. In experiments testing the effect of antagonists, 25 μL of buffer from wells of washed cells were replaced with 25 μL of vehicle or 4× antagonist solution. Pre-incubation of ligand with dye-loaded cells proceeded for 5–30 minutes immediately prior to measurements of agonist-evoked responses. Agonist-evoked Ca^2+ mobilization responses of cell populations were monitored at room temperature simultaneously in all wells of the assay plate using the plate-imaging fluorometric reader FLIPR (MDS Analytical Technologies, Sunnyvale, CA). […] The amplitudes of Ca^2+ transient responses are reported as ΔF/F0, or fold-change in Ca^2+ dye fluorescence relative to the baseline signal ΔF/F0 = (F-F0)/F0 +1 (where ΔF is maximal fluorescence intensity observed following agonist application, F0 = baseline fluorescence, or average intensity measured over the 10 s interval prior to agonist application). Image acquisition rates were varied from 1 Hz during the first 100 s of measurements to 0.5 Hz for the remaining time of the recording.\nGraphs shown reflect either pooled or representative data (see figure legends). For concentration-response analysis, results from Ca^2+ mobilization experiments were plotted as ΔF/F0 vs. agonist concentration and fit to a sigmoidal concentration-response equation using the GraphPad Prism software package. In cases where biphasic concentration-response curves were observed data were fit to a two-site concentration-response model: F(X)=R0+(Rmax−R0)[Fr1/(1+10^X-logEC50,1)+(1−Fr1)/(1+10^X-logEC50,2)] (1) , where X is the logarithm of the agonist concentration, R0 and Rmax are respectively the response minimum and maximum; Fr1 is the response fraction attributable to receptor characterized by half effective concentration of the first response phase (EC50,1), with the reminder response attributable to the second half effective concentration (EC50,2). For radioligand binding experiments, B max values were calculated from maximum binding using the equation B max = (SB × ([…] + [L])/[L]), where SB is the specific binding expressed as fmol per mg of membrane protein, and [L] is the ligand concentration."}}, "data": [{"smiles": "CS(=O)(=O)Nc1c(O)ccc2c1CCCC2C1=NCCN1", "note": "(stereo not shown) [A-61603]", "values": [{"measurement": "cellular concentration of inositol phosphates IP1, IP2 and IP3", "setting": "α1A-AR [1]", "value": "concentration-dependent increases"}, {"measurement": "Ki", "setting": "β2-AR [2]", "value": 24, "unit": "µM"}, {"measurement": "cellular levels of inositol phosphates IP1, IP2 and IP3", "setting": "α1A-AR [3]", "value": "concentration-dependent increases"}, {"measurement": "translocation of β-arrestin-1 / β-arrestin-2", "setting": "α1A-AR [4]", "value": "did not induce significant translocation"}, {"measurement": "EC50 IP", "setting": "HEK293/EBNA cells; HEK293/EBNA untransduced", "value": "BQL"}, {"measurement": "IP formation", "setting": "HEK293/EBNA cells; untransduced cells, data not shown", "value": "not detectable"}, {"measurement": "EC50", "setting": "β2-AR [5]", "value": 3, "unit": "nM"}, {"measurement": "EC50 p-ERK", "setting": "β2-AR [6]", "value": "BQL"}, {"measurement": "EC50 cAMP", "setting": "β2-AR [7]", "value": "BQL"}, {"measurement": "times more potent at inducing p-ERK formation than Ca2+ mobilization", "setting": "α1A-AR [8]; α1A-AR transduced HEK-293/EBNA", "value": "~4", "unit": "times"}]}, {"smiles": "COc1cc2ncnc(Nc3cccc(Cl)c3)c2cc1OC", "note": "[AG1478]", "values": [{"measurement": "effect of EGFR inhibition on Iso induced α1A-AR stimulation of ERK1/2", "setting": "α1A-AR [8]; data not shown", "value": "not affected"}]}, {"smiles": "Cc1ccc(OCC(O)C(C)NC(C)C)c2c1CCC2", "note": "(stereo not shown) [ICI 118551]", "values": [{"measurement": "attenuation of responses to high Iso concentrations", "setting": "α1A-AR [9]; ICI 118551 at 10 nM", "value": "~50", "unit": "%"}, {"measurement": "effect of antagonist on Iso-evoked Ca2+ response", "setting": "α1A-AR [9]; RS100329 10 nM, ICI 118551 10 nM, atenolol 1 μM", "value": "abolished responses to low Iso concentrations"}]}]}
